The record followed here is patent publication US12331038B2, “Hexone glucokinase inhibitor and use thereof” (SHANDONG XUANZHU PHARMA CO., LTD., priority 2019, dated 2025).

Test [1] deals with HepG2 cells. Put plainly: Inhibition of production of fructose-1-phosphate induced by D-Fructose in HepG2 cells (LC-MS). The conditions noted are these: 30 min compound pre-incubation, D-Fructose 3 hours. Format: cell-based. The protocol: Experimental Protocol: 1. Cell Culture and Inoculation • 1) HepG2 cells in the logarithmic growth phase were collected and counted with a […]. The Trypan blue exclusion method was used to detect cell viability and ensure that cell viability is 90% or above. • 2) The concentration of HepG2 cells was adjusted, and 81 μL of the cell suspension in a FBS-free basal medium (starvation treatment) was add to a 96-well plate, with a cell inoculum amount of 5×10^4 cells per test well. • 3) The HepG2 cells in the 96-well plate were cultured overnight at 37° C., 5% CO2, and 95% humidity. 2. Administration • 1) Before administration, 9 μL of FBS was added to the test wells of the 96-well plate to stop the starvation treatment. • 2) 10× stock solutions of the individual test compounds were prepared by dilution in a 3-fold gradient to 8 concentrations, with the highest concentration of 100 μM. 10 μL of the test compound solutions was added to each well of the 96-well plate inoculated with the cells, in triplicate per test compound concentration. For the solvent control, 10 μL of 1% DMSO solution was added to each well, in triplicate. • 3) The cells in the 96-well plate added with the test compounds were incubated at 37° C., 5% CO2, and 95% humidity for 30 min. • 4) An 11-fold D-Fructose solution was prepared at the concentration of 220 mM. 10 μL of the D-Fructose solution was added to the 96-well plate inoculated with HepG2 cells per well, in triplicate. For the solvent control, 10 μL of 11% DPBS solution was added, in triplicate. • 5) The cells in the 96-well plate added with D-fructose were incubated at 37° C., 5% CO2, and 95% humidity for 3 hours. 3. Sample Treatment The medium in the 96-well plate was removed, and the cells in the 96-well plate were washed with cold DPBS (200 μl/well) for 3 times. 30 μL of cold 10 mM ammonium acetate (pH 7.4) was added into each well to lyse the cells (hypotonic lysis). After lysis on ice for 5 minutes, the cells were fully pipetted and the cell lysate was taken for LC-MS analysis. 4. Data Analysis The data were analyzed with GraphPad Prism 5.0 software, and fitted with nonlinear S-curve regression, so as to obtain a dose-effect curve to calculate the EC50 value. 5.

Test [2] deals with T1, KHK-C (Homo sapiens (Human), UniProt P50053). Put plainly: Inhibitory activity against KHK-C kinase in vitro (ADP-Glo), Experimental Protocol II. Format: biochemical. The conditions noted are these: 1 nM KHK-C, 100 μM ATP, 200 μM D-Fructose, control drug top concentration 1000 nM. The protocol: Experimental Protocol II: 1. Compound Dilution • 1) The compounds of the present invention and the control drug were formulated in DMSO to 10 mM as stock solutions for test. • 2) The stock solutions of the compounds of the present invention were diluted by 10-fold to 1 mM, and then further diluted in a 3-fold gradient to 11 concentrations, with the highest concentration being 1 mM. The stock solution of the control drug was diluted by 100-fold to 0.1 mM, and then further diluted in a 3-fold gradient to 11 concentrations, with the highest concentration being 0.1 mM. • 3) 0.1 μL of the compounds of the present invention and the control drug as diluted was transferred with Echo550 to a 384-well plate, in duplicate per concentration, and then centrifuged at 1000 rpm for 1 min. 2. Enzyme Reaction Test • 1) 5 μL of KHK-C kinase working solution was added to the 384-well plate, centrifuged at 1000 rpm for 1 min, and then incubated at room temperature of 25° C. for 15 min. • 2) 5 μL of the substrate working solution was added to the 384-well plate to initiate the kinase reaction, centrifuged at 1000 rpm for 1 min, and incubated at room temperature of 25° C. for 60 min. • 3) The final concentrations of the KHK-C kinase reaction system were 1 nM for KHK-C, 100 μM for ATP, 200 μM for D-Fructose, 50 mM for HEPES, 10 mM for MgCl2, and 0.01% for Brij35, and the final concentration of DMSO was 1%. • 4) The final concentrations of the test compounds were 10000 nM, 3333.33 nM, 1111.11 nM, 370.37 nM, 123.457 nM, 41.15 nM, 13.71 nM, 4.572 nM, 1.524 nM, 0.508 nM, and 0.169 nM, respectively. • 5) The final concentrations of the control drug were 1000 nM, 333.33 nM, 111.11 nM, 37.037 nM, 12.346 nM, 4.115 nM, 1.371 nM, 0.4572 nM, 0.1524 nM, 0.0508 nM, and 0.0169 nM, respectively. 3. Reaction Termination and Detection • 1) The 384-well plate was added with 10 μL of the ADP Glo reagent, centrifuged at 1000 rpm for 1 min, and then incubated at room temperature of 25° C. for 40 min. • 2) The 384-well plate was added with 20 μL of the kinase detection reagent, centrifuged at 1000 rpm for 1 min, and then incubated at room temperature of 25° C. for 40 min. • 3) After the reaction was completed, the […] value LUM was read on Envision. 4. Data Analysis The following equation was used to calculate the inhibition (% inh): […]
In general terms: In ADP-Glo the light output rises with the ADP produced.

In test [3] the target is T1, KHK-C. In words: Inhibitory activity against KHK-C kinase in vitro (ADP-Glo), Experimental Protocol I. The conditions noted are these: 1 nM KHK-C, 100 μM ATP, 200 μM D-Fructose, control drug top concentration 10000 nM. Format: biochemical. The procedure:
2. […] 3. Reaction Termination and Detection • 1) The 384-well plate was added with 10 μL of the ADP Glo reagent, centrifuged at 1000 rpm for 1 min, and then incubated at room temperature of 25° C. for 40 min. • 2) The 384-well plate was added with 20 μL of the kinase detection reagent, centrifuged at 1000 rpm for 1 min, and then incubated at room temperature of 25° C. for 40 min. • 3) After the reaction was completed, the […] value LUM was read on Envision. 4. Data Analysis The following equation was used to calculate the inhibition (% inh): […]

Each structure is given as a SMILES string.

T1 sequence (P50053 whole entry): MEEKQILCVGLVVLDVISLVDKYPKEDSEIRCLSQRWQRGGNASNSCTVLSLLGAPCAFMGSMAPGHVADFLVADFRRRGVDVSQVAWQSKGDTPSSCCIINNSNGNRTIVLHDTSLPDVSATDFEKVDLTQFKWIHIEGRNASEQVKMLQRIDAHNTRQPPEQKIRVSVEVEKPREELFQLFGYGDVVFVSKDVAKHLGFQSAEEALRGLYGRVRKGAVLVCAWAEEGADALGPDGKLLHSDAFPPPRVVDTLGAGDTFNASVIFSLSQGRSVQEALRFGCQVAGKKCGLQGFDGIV

Compound `C[C@H]1N(c2nc(N3C[C@@H]4[C@@H](CC(=O)O)[C@@H]4C3)c3c(n2)C(F)(F)CCC3)CC1(F)F` (single isomer, unassigned) [Compound 4-2] returned an EC50 in test [1] (Homo sapiens) of 18.2 nM. This compound also yielded an IC50 in test [2] of 1.5 nM.
For `C[C@H]1CCN1c1nc(N2C[C@@H]3[C@@H](CC(=O)O)[C@@H]3C2)c2c(n1)C(F)(F)CC2` [Compound 1, 2-((1R,5S,6R)-3-(7,7-difluoro-2-((S)-2-methylazetidin-1-yl)-6,7-dihydro-5H-cyclopenta[d]pyrimidin-4-yl)-3-azabicyclo[3.1.0]hexan-6-yl)acetic acid], a half-maximal response in test [1] (Homo sapiens) (EC50) required 21.9 nM.
As for `C[C@H]1CCN1c1nc(N2C[C@@H]3[C@@H](CC(=O)O)[C@@H]3C2)c2c(n1)C(F)(F)CCC2` [Compound 2, 2-((1R,5S,6R)-3-(8,8-difluoro-2-((S)-2-methylazetidin-1-yl)-5,6,7,8-tetrahydroquinazolin-4-yl)-3-azabicyclo[3.1.0]hexan-6-yl)acetic acid], the concentration for a half-maximal effect (EC50) in test [1] (Homo sapiens) worked out at 14.5 nM. This compound also had a 50% inhibitory concentration (IC50) in test [3] of 0.52 nM.
In turn, `CC1C(F)CN1c1nc(N2C[C@@H]3[C@@H](CC(=O)O)[C@@H]3C2)c2c(n1)C(F)(F)CCC2` (stereo partly drawn) [Compound 3-1, 2-((1R,5S,6s)-3-(8,8-difluoro-2-(3-fluoro-2-methylazetidin-1-yl)-5,6,7,8-tetrahydroquinazolin-4-yl)-3-azabicyclo[3.1.0]hexan-6-yl)acetic acid] showed a half-maximal effective concentration (EC50) in test [1] (Homo sapiens) of 7.3 nM. For the same compound, the IC50 in test [2] was determined as 0.73 nM.
As to `CC1N(c2nc(N3C[C@@H]4[C@@H](CC(=O)O)[C@@H]4C3)c3c(n2)C(F)(F)CCC3)CC1(F)F` (stereo partly drawn) [Compound 4-1, 2-((1R,5S,6s)-3-(2-(3,3-difluoro-2-methylazetidin-1-yl)-8,8-difluoro-5,6,7,8-tetrahydroquinazolin-4-yl)-3-azabicyclo[3.1.0]hexan-6-yl)acetic acid], in test [1] (Homo sapiens), the half-maximal effective concentration (EC50) is 11.8 nM. Half-maximal inhibition in test [2] (IC50) required 2.2 nM.
For the compound `CC1C(F)CN1c1nc(N2C[C@@H]3[C@@H](CC(=O)O)[C@@H]3C2)c2c(n1)C(F)(F)CC2` (stereo partly drawn) [Compound 6-1, 2-((1R,5S,6s)-3-(7,7-difluoro-2-(3-fluoro-2-methylazetidin-1-yl)-6,7-dihydro-5H-cyclopenta[d]pyrimidin-4-yl)-3-azabicyclo[3.1.0]hexan-6-yl)acetic acid], in test [1] (Homo sapiens), a half-maximal effect (EC50) was put at 39 nM. Moreover, the half-inhibitory concentration (IC50) in test [2] worked out at 0.9 nM.
Turning to `C[C@H]1CCN1c1nc(N2C[C@@H]3C(CC(=O)O)[C@@H]3C2)cc(C(F)(F)F)n1` (stereo partly drawn) [PF-06835919, reference compound], the concentration giving a half-maximal response (EC50) in test [1] amounted to 169 nM.

A word on the EC50: it is the concentration giving half of the maximal effect. A low value points to greater potency. The term IC50 denotes the concentration at which inhibition is half-maximal. The low end stands for greater potency, the high end for weaker potency.
